# Reference: paper PMC7651685 (Psychopharmacology, 2020)
# Where “and” joins values, the source holds several entries; their conditions need not be identical. Equal entries are not always repeated. Structures can show the parent of a compound that is named as a salt.
# Columns and labels:
# [1] = test system: dopamine efflux in the nucleus accumbens; design: method as in Rowley et al. [2017]; conditions: rat nucleus accumbens microdialysis; ref Rowley et al. [2017]; cited from earlier work
# [2] = test system: plasma protein; test: Plasma protein binding
# [3] = oral; ref Koblan et al. [2016]; cited from earlier work
# [4] = test system: DAT; conditions: ref Spencer et al. [2006]; cited from earlier work
# [5] = test system: plasma protein; conditions: ref Faraj et al. [1974]; cited from earlier work
# [6] = Extrapolated permeability and half-time to reach brain equilibrium (equation of Liu et al.); conditions: MPH relative to DAS, from t1/2equil
# From the text: While lipid solubility and protein binding influences brain penetration, it appears that it is the combination of these two properties that influences the rate of brain penetration of a drug (Liu et al [2005]). […] The half-time to reach brain equilibrium (t1/2 equil) can be estimated by the following equation:
# t1/2 equil = Vbln2/(PS.fu,brain)
# where Vb is brain volume, PS is the permeability surface area product, P is the permeability rate, S is the surface area and fu is the unbound (free) drug brain concentration.
# For comparative purposes between MPH and DAS, we can assume Vb and surface area are the same for both drugs, and the above equation becomes: t1/2equil∝1/P.fu,brain
# As mentioned above, plasma protein binding of DAS and MPH are ~ 0.97 (or ~ 97%) and ~ 0.14 (or 14%) respectively, and the free plasma concentration of DAS is 0.03 and for MPH, it is 0.86. Since free drug plasma concentration is equal to free drug brain concentration, we can apply the free drug plasma concentration values of DAS and MPH together with the extrapolated permeability for DAS (12P) and MPH (P) to approximate t1/2 equil for both drugs, i.e.,
# [7] = test system: dopamine transporters (DAT); test: [18F]-FE-PE2I PET displacement: DAT occupancy, displacement half-time and brain entry (modified GRTM); format: in vivo, rhesus macaques (Macaca mulatta); conditions: for Brain entry time, Caudate / Brain entry time, Putamen / Brain entry time, Mean: modified GRTM; for Brain entry time, Mean: mean over animals and regions; for Percent maximum displacement (= % DAT occupancy), Caudate\Putamen mean, Mean ± SD: group mean of four animals
# Protocol: Two male and two female rhesus macaques (Macaca mulatta) housed at the Yale University School of Medicine (New Haven, CT) were used for the [^18F]-FE-PE2I imaging. In all experiments, [^18F]-FE-PE2I was administered as a bolus plus constant infusion (Kbol from 168 to 216 min; total radioactivity = 162 ± 27 MBq) over 4 h to establish steady-state DAT binding. Bolus/infusion delivery parameters (i.e., Kbol) for [^18F]-FE-PE2I for each monkey were determined from baseline [^18F]-FE-PE2I scans that utilized single bolus intravenous injections of the radiotracer (Carson et al. [1993]). Identical procedures were used for list-mode image acquisition with a Siemens Focus 220 PET scanner for all DAT brain studies. The dynamic PET imaging series were reconstructed into 57 frames (6 × 0.5 min, 3 × 1 min, 2 × 2 min, and 46 × 5 min) using filtered back projection with standard corrections for random, scatter, and attenuation provided by the camera manufacturer.
# At 2 h into the [^18F]-FE-PE2I scan, under tracer steady-state conditions, DAS or MPH was administered i.v. either as a 3 min i.v. bolus or as a bolus plus 4-step infusion over 40 min (four 10-min steps). The drug bolus experiments were carried out in all four rhesus macaques, each receiving DAS at 0.2 and 0.1 mg/kg and MPH at 0.5 and 0.1 mg/kg. The drug bolus plus 4-step infusion experiments were conducted in two rhesus macaques, each receiving DAS bolus injection over 30 s followed by a 4-step infusion over 40 min (four 10-min steps, 1.55, 1.45, 1.4, 1.3 mg) and MPH bolus injection over 30 s followed by an infusion over 40 min (four 10-min steps, 1.15, 1, 0.85, 0.75 mg).
# Reconstructed dynamic PET images were transferred and analyzed using the image processing software package PMOD 3.6 (PMOD Technologies, Zurich, Switzerland). The PET images were normalized to an MR rhesus brain template (Rohlfing et al. [2012]) and a region of interest (ROI) atlas including the caudate nucleus, putamen, and cerebellar cortex was applied. Average activity concentration (kBq/cc) within each ROI was determined and time-activity curves (TAC) representing the regional brain activity concentration over time were generated. TACs were additionally expressed in SUV units (g/ml) by normalizing by the weight of the animal and the injected dose.
# Reductions in radiotracer binding following administration of DAS or MPH were used to determine DAT occupancy while reductions in radiotracer binding over time were used to estimate brain entry and binding rates. The displacement half-time is defined as the time it takes from drug administration until 50% of maximal tracer displacement is achieved. Tracer displacement half-times were estimated using average uptake levels from the baseline and displacement experiments and expressing the change in standardized uptake values (SUV) units as a fraction (normalized) of the observed SUV difference at the end of the experiment. Normalized SUV values for caudate and putamen respectively were plotted against time for each dose of DAS and MPH respectively to estimate the drug displacement half-time.
# Brain entry of DAS and MPH was determined by analyzing the [^18F]-FE-PE2I TACs in the putamen and caudate nucleus using a kinetic model using the cerebellar cortex as a reference region. The kinetic model is based on the generalized reference tissue model (GRTM; Votaw et al. [2002]) and a recent report of brain entry and binding rates measurement (Nicolas et al. [2016]). […] The half-life of the brain entry and binding of the drug was estimated as ln(2)/α. The kinetic model employs 5 parameters: R1, BPND, r, α, and k2′ where R1 is the relative tracer influx rate constant and k2′ is the reference tissue tracer efflux rate constant. The maximum occupancy was constrained to the measured displacement, while k2′ and α were constrained to a common value across the putamen and caudate nucleus.
# [8] = 0.1 mg/kg MPH, bolus administration, individual animals A-D
# [9] = 0.5 mg/kg MPH, bolus administration, individual animals A-D
# [10] = 4.3 mg MPH, bolus + 4 step infusion, individual animals A, B
# [11] = MPH 0.1 mg/kg i.v. 3 min bolus, individual animals A-D
# [12] = MPH 0.5 mg/kg i.v. 3 min bolus, individual animals A-D
# [13] = MPH 4.3 mg, bolus plus 4-step infusion over 40 min, individual animals A, B
structure (smiles),measurement,setting,value
"COC(=O)C(c1ccccc1)C1CCCCN1 (racemic) [MPH, (±)-Methyl α-Phenyl-α-(2-piperidyl)acetate hydrochloride, reference compound]",Time of peak of dopamine efflux,[1],40 min
same,Free plasma concentration higher than that of DAS,[2]; MPH relative to DAS,~30 fold
same,Free plasma concentration (fraction),"[2]; as fraction, from plasma protein binding",0.86
same,Free plasma concentration,[2]; from plasma protein binding,86%
same,Time to peak (oral absorption),[3],2 to 3 h
same,DAT occupancy OC50,[4],6 ng/mL
same,Plasma protein binding,[5],< 14%
same,Faster than DAS in reaching brain equilibrium,[6],> 2 fold
same,Averaged displacement half-time (between caudate and putamen),[7]; 0.1 mg/kg MPH i.v. bolus,15.5 min
same,"Brain entry time, Caudate",[7]; [8],2.57 min and 3.41 min and 2.60 min and 3.44 min
same,"Brain entry time, Putamen",[7]; [8],2.34 min and 2.59 min and 2.91 min and 4.28 min
same,"Brain entry time, Mean","[7]; 0.1 mg/kg MPH, bolus administration",3 min and 3.02 ± 0.65 min and 3.02 min
same,Averaged displacement half-time (between caudate and putamen),[7]; 0.5 mg/kg MPH i.v. bolus,11.5 min
same,"Brain entry time, Caudate",[7]; [9],2.25 min and 2.19 min and 1.78 min and 2.65 min
same,"Brain entry time, Putamen",[7]; [9],2.07 min and 2.08 min and 2.09 min and 2.00 min
same,"Brain entry time, Mean","[7]; 0.5 mg/kg MPH, bolus administration",2 min and 2.14 ± 0.25 min and 2.14 min
same,"Brain entry time, Caudate",[7]; [10],7.15 min and 6.48 min
same,"Brain entry time, Putamen",[7]; [10],5.77 min and 7.69 min
same,"Brain entry time, Mean","[7]; 4.3 mg MPH, bolus + 4 step infusion",6.77 min
same,"Percent maximum displacement (= % DAT occupancy), Caudate\Putamen mean, Mean ± SD",[7]; MPH 0.1 mg/kg i.v. 3 min bolus,69% and 68.60 ± 5.21%
same,"Percent maximum displacement (= % DAT occupancy), Caudate nucleus",[7]; [11],72.4% and 72.7% and 64.2% and 60.4%
same,"Percent maximum displacement (= % DAT occupancy), Caudate\Putamen mean",[7]; [11],73.1% and 63.6% and 64.6%
same,"Percent maximum displacement (= % DAT occupancy), Putamen",[7]; [11],73.7% and 73.5% and 62.9% and 68.8%
same,"Percent maximum displacement (= % DAT occupancy), Caudate\Putamen mean, Mean ± SD",[7]; MPH 0.5 mg/kg i.v. 3 min bolus,88% and 88.20 ± 2.62%
same,"Percent maximum displacement (= % DAT occupancy), Caudate nucleus",[7]; [12],91.7% and 87.9% and 83.9% and 87.0%
same,"Percent maximum displacement (= % DAT occupancy), Caudate\Putamen mean",[7]; [12],91.3% and 88.5% and 84.9% and 88.1%
same,"Percent maximum displacement (= % DAT occupancy), Putamen",[7]; [12],90.9% and 89.0% and 85.9% and 89.1%
same,"Percent maximum displacement (= % DAT occupancy), Caudate nucleus",[7]; [13],87.9% and 90.2%
same,"Percent maximum displacement (= % DAT occupancy), Caudate\Putamen mean",[7]; [13],88.9% and 89.5%
same,"Percent maximum displacement (= % DAT occupancy), Putamen",[7]; [13],89.9% and 88.9%
same,"Percent maximum displacement (= % DAT occupancy), Caudate\putamen mean, Mean","[7]; MPH 4.3 mg, bolus plus 4-step infusion over 40 min, mean of two animals",89.2%
same,Brain entry faster than DAS,"[7]; bolus + 4 step infusion, matched delivery, MPH relative to DAS",~3 fold
same,Displacement of [18F]-FE-PE2I / DAT occupancy faster than DAS (displacement half-times),"[7]; i.v. bolus, MPH relative to DAS",approximately 3 fold
